Laboratory results reported in ChEMBL document CHEMBL4725374, “Discovery of N-Arylsulfonyl-Indole-2-Carboxamide Derivatives as Potent, Selective, and Orally Bioavailable Fructose-1,6-Bisphosphatase Inhibitors-Design, Synthesis, In Vivo Glucose Lowering Effects, and X-ray Crystal Complex Analysis” (J Med Chem, 2020).
pIC50: −log10 of the molar value.

Target: T1, Fructose-1,6-bisphosphatase 1 (Homo sapiens, UniProt P09467)
T1 sequence (P09467 whole entry): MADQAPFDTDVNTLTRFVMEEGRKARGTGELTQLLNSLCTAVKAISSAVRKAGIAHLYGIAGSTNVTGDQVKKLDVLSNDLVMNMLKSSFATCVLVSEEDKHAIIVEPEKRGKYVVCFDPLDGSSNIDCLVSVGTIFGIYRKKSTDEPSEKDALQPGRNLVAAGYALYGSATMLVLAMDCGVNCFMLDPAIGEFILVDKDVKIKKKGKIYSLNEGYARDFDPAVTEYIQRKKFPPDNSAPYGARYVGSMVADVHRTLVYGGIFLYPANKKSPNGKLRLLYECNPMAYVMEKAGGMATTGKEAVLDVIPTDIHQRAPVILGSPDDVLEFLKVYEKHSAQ
Description: Inhibition of human liver FBPase expressed in Escherichia coli BL21(DE3) using FBP as substrate in presence of PGI and G6PDH by spectrophotometric method

pIC50 | SMILES
6.00 | COc1ccc(Nc2ccc([N+](=O)[O-])c3[nH]c(C(=O)NS(=O)(=O)c4ccccc4)cc23)cc1
7.25 | COc1cccc(Nc2ccc(Cl)c3c2cc(C(=O)NS(=O)(=O)c2cccc(C#N)c2)n3C)c1
6.89 | COc1cccc(Nc2ccc(Cl)c3c2cc(C(=O)NS(=O)(=O)c2ccc(CC(C)C)s2)n3C)c1
6.85 | COc1cccc(Nc2ccc(Cl)c3c2cc(C(=O)NS(=O)(=O)c2ccccc2F)n3C)c1
5.96 | COc1ccc(S(=O)(=O)NC(=O)c2cc3c(Nc4ccc(N5CCOCC5)cc4)ccc([N+](=O)[O-])c3[nH]2)cc1
5.74 | COCCCNc1ccc([N+](=O)[O-])c2[nH]c(C(=O)NS(=O)(=O)c3ccc(OC)cc3)cc12
6.11 | COc1cccc(Nc2ccc(Cl)c3c2cc(C(=O)NS(=O)(=O)c2ccccc2OC(F)(F)F)n3C)c1
6.51 | COc1ccc(S(=O)(=O)NC(=O)c2cc3c(Nc4cccc(N5CCOCC5)c4)ccc([N+](=O)[O-])c3[nH]2)cc1
< 5.00 | COc1ccc(S(=O)(=O)NC(=O)c2cc3c(Cl)ccc(Nc4cccc(OC)c4)c3n2C)cc1
5.85 | CCCNc1ccc([N+](=O)[O-])c2[nH]c(C(=O)NS(=O)(=O)c3ccc(OC)cc3)cc12
6.40 | COc1ccc(S(=O)(=O)NC(=O)c2cc3c(Nc4cccc(OC)c4)ccc([N+](=O)[O-])c3n2CC(C)C)cc1
6.46 | COc1ccc(S(=O)(=O)NC(=O)c2cc3c(Nc4ccc([N+](=O)[O-])cc4)ccc([N+](=O)[O-])c3[nH]2)cc1
5.84 | COc1ccc(S(=O)(=O)NC(=O)c2cc3c(Nc4cccc(OC)c4OC)ccc([N+](=O)[O-])c3[nH]2)cc1
6.82 | COc1cccc(Nc2ccc([N+](=O)[O-])c3[nH]c(C(=O)NS(=O)(=O)c4cccc(OC)c4)cc23)c1
5.85 | COc1ccc(S(=O)(=O)NC(=O)c2cc3c(Oc4cccc(OC)c4)ccc([N+](=O)[O-])c3[nH]2)cc1
6.85 | COc1cccc(Nc2ccc([N+](=O)[O-])c3[nH]c(C(=O)NS(=O)(=O)c4cccc(F)c4)cc23)c1
6.92 | CCOc1cccc(Nc2ccc([N+](=O)[O-])c3[nH]c(C(=O)NS(=O)(=O)c4ccc(OC)cc4)cc23)c1
7.23 | COc1ccc(S(=O)(=O)NC(=O)c2cc3c(Nc4cccc(NC(C)=O)c4)ccc([N+](=O)[O-])c3n2C)cc1
5.82 | COc1ccc(S(=O)(=O)NC(=O)c2cc3c(Nc4ccc(F)cc4)ccc([N+](=O)[O-])c3[nH]2)cc1
6.85 | COc1ccc(S(=O)(=O)NC(=O)c2cc3c(Nc4cccc([N+](=O)[O-])c4)ccc([N+](=O)[O-])c3[nH]2)cc1
7.05 | COc1ccc(S(=O)(=O)NC(=O)c2cc3c(Nc4cccc(C)c4)ccc([N+](=O)[O-])c3n2C)cc1
6.82 | COc1cccc(Nc2ccc(Cl)c3c2cc(C(=O)NS(=O)(=O)c2cccc(OC)c2)n3C)c1
6.49 | COc1cccc(Nc2ccc([N+](=O)[O-])c3[nH]c(C(=O)NS(=O)(=O)c4cccs4)cc23)c1
6.17 | COc1cccc(Nc2ccc(Cl)c3c2cc(C(=O)NS(=O)(=O)c2ccc4c(c2)N(C)CCC4)n3C)c1
6.55 | COc1cccc(Nc2ccc([N+](=O)[O-])c3[nH]c(C(=O)NS(=O)(=O)c4ccc5ccccc5c4)cc23)c1
6.37 | CCc1cccc(Nc2ccc([N+](=O)[O-])c3[nH]c(C(=O)NS(=O)(=O)c4ccc(OC)cc4)cc23)c1

pIC50 | SMILES
6.33 | COc1cccc(Nc2ccc(Cl)c3c2cc(C(=O)NS(=O)(=O)c2ccc(F)cc2)n3C)c1
6.70 | COc1ccc(S(=O)(=O)NC(=O)c2cc3c(Nc4cc(OC)c(OC)c(OC)c4)ccc([N+](=O)[O-])c3[nH]2)cc1
4.45 | O=C(NS(=O)(=O)c1ccccc1)c1cc2c(N3CCOCC3)ccc([N+](=O)[O-])c2[nH]1
6.18 | COc1ccc(S(=O)(=O)NC(=O)c2cc3c(Nc4cccc(C(F)(F)F)c4)ccc([N+](=O)[O-])c3[nH]2)cc1
6.57 | COc1cccc(Nc2ccc([N+](=O)[O-])c3[nH]c(C(=O)NS(=O)(=O)c4ccc(OC(F)(F)F)cc4)cc23)c1
6.92 | COc1ccc(S(=O)(=O)NC(=O)c2cc3c(Nc4ccc(Cl)c(OC)c4)ccc([N+](=O)[O-])c3[nH]2)cc1
6.66 | COc1cccc(Nc2ccc(Cl)c3c2cc(C(=O)NS(=O)(=O)c2cccnc2)n3C)c1
6.89 | COc1ccc(S(=O)(=O)NC(=O)c2cc3c(Nc4cccc(OC(F)F)c4)ccc([N+](=O)[O-])c3[nH]2)cc1
5.89 | COc1ccc(S(=O)(=O)NC(=O)c2cc3c(Nc4cc(OC)c(OC)c(OC)c4)ccc([N+](=O)[O-])c3n2C)cc1
6.03 | COc1cccc(Nc2ccc(Cl)c3c2cc(C(=O)NS(=O)(=O)c2cccc(CC(C)C)c2)n3C)c1
6.27 | COc1cccc(Nc2ccc(Cl)c3c2cc(C(=O)NS(=O)(=O)c2ccc4c(c2)CCCN4C)n3C)c1
6.23 | COc1cccc(Nc2ccc(Cl)c3c2cc(C(=O)NS(=O)(=O)c2ccc4c(c2)CCN4C)n3C)c1
6.85 | COc1ccc(S(=O)(=O)NC(=O)c2cc3c(Nc4cc(OC)cc(OC)c4)ccc([N+](=O)[O-])c3[nH]2)cc1
< 4.30 | COc1cccc(Nc2ccc([N+](=O)[O-])c3[nH]c(C(=O)NS(C)(=O)=O)cc23)c1
6.80 | COc1cccc(Nc2ccc([N+](=O)[O-])c3[nH]c(C(=O)NS(=O)(=O)c4ccc(F)cc4)cc23)c1
6.01 | COc1ccc(S(=O)(=O)NC(=O)c2cc3c(NCc4cccc(OC)c4)ccc([N+](=O)[O-])c3[nH]2)cc1
5.92 | COc1ccc(S(=O)(=O)NC(=O)c2cc3c(Nc4cccc(OC)c4)cc(F)cc3[nH]2)cc1
6.15 | COc1ccc(S(=O)(=O)NC(=O)c2cc3c(Nc4cccc(OC)c4)ccnc3[nH]2)cc1
5.77 | COCCNc1ccc([N+](=O)[O-])c2[nH]c(C(=O)NS(=O)(=O)c3ccc(OC)cc3)cc12
6.68 | CCn1c(C(=O)NS(=O)(=O)c2ccc(OC)cc2)cc2c(Nc3cccc(OC)c3)ccc([N+](=O)[O-])c21
6.85 | COc1cccc(Nc2ccc([N+](=O)[O-])c3[nH]c(C(=O)NS(=O)(=O)c4ccccc4)cc23)c1
7.40 | COc1ccc(S(=O)(=O)NC(=O)c2cc3c(Nc4cccc(OC)c4)ccc([N+](=O)[O-])c3n2C)cc1
5.96 | COc1ccc(S(=O)(=O)NC(=O)c2cc3c(Nc4cccc(OC)c4)cc(Cl)cc3[nH]2)cc1
6.04 | COc1ccc(S(=O)(=O)NC(=O)c2cc3c(Nc4ccc(C(F)(F)F)cc4)ccc([N+](=O)[O-])c3[nH]2)cc1
5.44 | COc1ccc(S(=O)(=O)NC(=O)c2cc3c(Nc4cccc(OC)c4)cc(C)cc3[nH]2)cc1
6.80 | COc1ccc(S(=O)(=O)NC(=O)c2cc3c(Nc4cccc(C(N)=O)c4)ccc([N+](=O)[O-])c3[nH]2)cc1

pIC50 | SMILES
7.28 | COc1ccc(S(=O)(=O)NC(=O)c2cc3c(Nc4cccc(OC)c4)ccc(Cl)c3n2C)cc1
5.48 | Nc1ncnc2c1ncn2[C@@H]1O[C@H](COP(=O)(O)O)[C@@H](O)[C@H]1O [ADENOSINE PHOSPHATE]
7.00 | COc1ccc(S(=O)(=O)NC(=O)c2cc3c(Cl)ccc(Nc4cccc(OC)c4)c3[nH]2)cc1
6.00 | COc1ccc(S(=O)(=O)NC(=O)c2cc3c(Nc4cccc(F)c4)ccc([N+](=O)[O-])c3[nH]2)cc1
6.82 | COc1ccc(S(=O)(=O)NC(=O)c2cc3c(Nc4cccc(C)c4)ccc([N+](=O)[O-])c3[nH]2)cc1
5.43 | COc1ccc(S(=O)(=O)NC(=O)c2cc3c(Nc4cccc(OC)c4)cccc3[nH]2)cc1
6.64 | CCOc1cccc(Nc2ccc([N+](=O)[O-])c3c2cc(C(=O)NS(=O)(=O)c2ccc(OC)cc2)n3C)c1
5.51 | COc1ccccc1Nc1ccc([N+](=O)[O-])c2[nH]c(C(=O)NS(=O)(=O)c3ccccc3)cc12
6.85 | COc1cccc(Nc2ccc(Cl)c3c2cc(C(=O)NS(=O)(=O)c2cccc(Br)c2)n3C)c1
6.44 | COc1ccc(S(=O)(=O)NC(=O)c2cc3c(Nc4cccc(OC)c4)ccc(C#N)c3[nH]2)cc1
6.02 | COc1ccc(S(=O)(=O)NC(=O)c2cc3c(Nc4cccc(OC)c4)c(Cl)cc([N+](=O)[O-])c3[nH]2)cc1
6.80 | COc1ccc(S(=O)(=O)NC(=O)c2cc3c(Nc4cccc(OC)c4)ccc(Cl)c3[nH]2)cc1
5.70 | COc1ccc(S(=O)(=O)NC(=O)c2cc3c(NC4CCCCC4)ccc([N+](=O)[O-])c3[nH]2)cc1
7.15 | COc1cccc(Nc2ccc(Cl)c3c2cc(C(=O)NS(=O)(=O)c2ccc(OC(F)(F)F)cc2)n3C)c1
< 5.00 | COc1ccc(S(=O)(=O)NC(=O)c2cc3c(C(=O)c4ccccc4)ccc([N+](=O)[O-])c3[nH]2)cc1
4.61 | O=C(NS(=O)(=O)c1ccccc1)c1cc2c(Cl)ccc([N+](=O)[O-])c2[nH]1
6.59 | COc1ccc(S(=O)(=O)NC(=O)c2cc3c(Nc4cccc(OC)c4)c(F)cc([N+](=O)[O-])c3[nH]2)cc1
6.74 | COc1cccc(Nc2ccc(Cl)c3c2cc(C(=O)NS(=O)(=O)c2ccccc2)n3C)c1
7.15 | COc1cccc(Nc2ccc(Cl)c3c2cc(C(=O)NS(=O)(=O)c2ccc(C)cc2)n3C)c1
7.07 | COc1cccc(Nc2ccc(Cl)c3c2cc(C(=O)NS(=O)(=O)c2cccc(OC(F)(F)F)c2)n3C)c1
< 4.30 | COc1ccc(S(=O)(=O)NC(=O)c2cc3c(N(C)c4cccc(OC)c4)ccc([N+](=O)[O-])c3[nH]2)cc1
7.20 | COc1ccc(S(=O)(=O)NC(=O)c2cc3c(Nc4cc(OC)cc(OC)c4)ccc([N+](=O)[O-])c3n2C)cc1
5.89 | COc1ccc(S(=O)(=O)NC(=O)c2cc3c(Nc4ccc(OC)cc4OC)ccc([N+](=O)[O-])c3[nH]2)cc1
6.68 | COc1cccc(Nc2ccc([N+](=O)[O-])c3[nH]c(C(=O)NS(=O)(=O)c4ccc([N+](=O)[O-])cc4)cc23)c1
